Measured values as given in publication PMC10053552, “Multiple Bioactivities of Peptides from Hydrolyzed Misgurnus anguillicaudatus” (Molecules, 2023).

Legend:
[1] = DPPH scavenging activity; assay type: biochemical; details: 0.5 mg/mL, glutathione at the same concentration
[2] = test system: pancreatic cholesterol esterase (CE); test: Pancreatic CE inhibitory activity; assay type: biochemical; details: 1 mg/mL (Figure 6a); pNPB substrate, pH 7.2, 37 °C, 30 min, 405 nm
[3] = Hydroxyl radical scavenging activity; assay type: biochemical; details: 0.5 mg/mL; amount higher than that of glutathione at the same concentration
[4] = target: angiotensin-converting enzyme (ACE) (UniProt P12821)
Chain of UniProt P12821 (P12821 30-1256): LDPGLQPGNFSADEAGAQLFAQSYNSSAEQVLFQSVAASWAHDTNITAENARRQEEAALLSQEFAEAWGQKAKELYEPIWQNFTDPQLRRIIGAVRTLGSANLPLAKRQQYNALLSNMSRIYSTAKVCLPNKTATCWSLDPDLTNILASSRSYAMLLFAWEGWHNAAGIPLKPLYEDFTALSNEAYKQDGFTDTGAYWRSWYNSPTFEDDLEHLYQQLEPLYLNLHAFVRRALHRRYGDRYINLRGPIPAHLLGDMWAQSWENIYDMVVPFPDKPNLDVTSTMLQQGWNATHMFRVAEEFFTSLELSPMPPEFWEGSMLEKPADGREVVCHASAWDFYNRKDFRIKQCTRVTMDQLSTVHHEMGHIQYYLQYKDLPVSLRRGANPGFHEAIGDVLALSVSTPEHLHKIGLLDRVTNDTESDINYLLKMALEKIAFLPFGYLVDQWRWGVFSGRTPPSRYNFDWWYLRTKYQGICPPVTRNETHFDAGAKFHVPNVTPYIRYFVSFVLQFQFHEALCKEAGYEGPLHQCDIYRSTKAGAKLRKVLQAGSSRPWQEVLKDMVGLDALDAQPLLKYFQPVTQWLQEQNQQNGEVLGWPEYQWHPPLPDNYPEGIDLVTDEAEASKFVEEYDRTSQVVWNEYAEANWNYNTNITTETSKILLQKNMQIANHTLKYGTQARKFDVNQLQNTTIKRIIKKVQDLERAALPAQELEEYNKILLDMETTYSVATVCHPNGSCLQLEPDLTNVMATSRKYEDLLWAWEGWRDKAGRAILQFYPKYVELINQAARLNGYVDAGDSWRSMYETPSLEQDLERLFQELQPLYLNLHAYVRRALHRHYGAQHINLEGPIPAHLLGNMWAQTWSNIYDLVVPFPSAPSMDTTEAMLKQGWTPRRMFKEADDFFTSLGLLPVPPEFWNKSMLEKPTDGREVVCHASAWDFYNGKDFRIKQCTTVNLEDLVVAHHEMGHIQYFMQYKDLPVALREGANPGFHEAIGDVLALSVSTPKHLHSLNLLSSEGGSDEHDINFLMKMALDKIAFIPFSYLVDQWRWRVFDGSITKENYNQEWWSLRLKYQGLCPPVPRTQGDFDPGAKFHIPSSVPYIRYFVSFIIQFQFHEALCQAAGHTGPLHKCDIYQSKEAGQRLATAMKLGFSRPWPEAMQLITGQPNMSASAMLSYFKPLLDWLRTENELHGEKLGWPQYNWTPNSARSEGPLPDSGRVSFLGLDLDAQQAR

[5] = target: pancreatic cholesterol esterase (CE) (UniProt P19835)
Chain of UniProt P19835 (P19835 21-753): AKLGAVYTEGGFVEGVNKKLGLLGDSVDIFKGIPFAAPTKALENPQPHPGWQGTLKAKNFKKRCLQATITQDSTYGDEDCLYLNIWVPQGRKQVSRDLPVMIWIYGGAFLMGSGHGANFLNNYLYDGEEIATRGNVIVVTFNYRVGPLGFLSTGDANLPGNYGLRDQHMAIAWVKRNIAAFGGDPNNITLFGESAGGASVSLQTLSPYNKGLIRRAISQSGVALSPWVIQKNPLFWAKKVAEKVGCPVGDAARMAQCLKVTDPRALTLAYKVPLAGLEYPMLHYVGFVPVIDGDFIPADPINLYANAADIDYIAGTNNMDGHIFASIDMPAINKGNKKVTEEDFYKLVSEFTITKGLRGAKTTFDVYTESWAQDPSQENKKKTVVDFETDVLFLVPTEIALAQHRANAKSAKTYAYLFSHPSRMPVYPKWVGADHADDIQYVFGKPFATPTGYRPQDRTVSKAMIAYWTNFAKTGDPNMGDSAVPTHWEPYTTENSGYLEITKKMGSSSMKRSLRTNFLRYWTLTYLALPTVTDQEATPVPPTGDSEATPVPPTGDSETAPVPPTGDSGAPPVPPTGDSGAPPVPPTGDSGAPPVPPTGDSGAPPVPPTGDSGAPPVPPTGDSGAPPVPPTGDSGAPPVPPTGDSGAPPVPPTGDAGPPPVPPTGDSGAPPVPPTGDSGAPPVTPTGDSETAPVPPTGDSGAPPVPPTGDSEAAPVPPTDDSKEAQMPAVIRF

DAGAGIAL [Peptide D-5, peptide DAGAGIAL identified in loach hydrolysate component F2, solid-phase synthesized]
DPPH scavenging activity as percentage of that of glutathione [1]: more than 90%

NDHFVKL [Peptide D-3, peptide NDHFVKL identified in loach hydrolysate component F2, solid-phase synthesized]
Pancreatic CE inhibition [2]: exhibited inhibitory effects on pancreatic CE | DPPH scavenging activity as percentage of that of glutathione [1]: more than 90%

SERDPSNIKWGDAGAQ [Peptide D-1, peptide … identified in loach hydrolysate component F2, solid-phase synthesized]
Hydroxyl radical scavenging activity: excess over glutathione [3]: 15.87% | DPPH scavenging activity as percentage of that of glutathione [1]: more than 90%

AFRVPTP [peptide D-4 (AFRVPTP)]
ACE inhibitory activity, percent inhibition (FAPGG hydrolysis; peptide concentration not given) [4]: 92.1% | IC50 of ACE inhibition (enzyme activity, FAPGG hydrolysis, absorbance at 340 nm, 37 °C, pH 8.3) [4]: 0.12 mM

TVDGPSGKLWR [peptide D-2 (…)]
IC50 of pancreatic CE inhibition (enzyme activity, pNPB hydrolysis, absorbance at 405 nm, 37 °C, pH 7.2) [5]: 2.62 mM
